Experiment [1] concerns the target T1, human GLP-1R (Homo sapiens, UniProt P43220, G168S).
T1 construct: expressed in transfected cells
The experiment in a line: CHO GLP-1R Clone H6 - Assay 1 (HTRF cAMP agonist assay). The experiment is classed as cell-based. The note with it: for EC50: CHO Clone H6, high GLP-1R density, cAMP, geometric mean; for Assay 1 Emax (%) / Emax: CHO Clone H6, relative to saturating full agonist GLP-1 7-36 (1 μM), arithmetic mean. Here is the method:
GLP-1R-mediated agonist activity was determined with a cell-based functional assay utilizing an HTRF (Homogeneous Time-Resolved Fluorescence) cAMP detection kit (cAMP HI Range Assay Kit; CisBio cat #62AM6PEJ) that measures cAMP levels in the cell. The method is a competitive immunoassay between native cAMP produced by the cells and exogenous cAMP labeled with the dye d2, The tracer binding is visualized by a mAb anti-cAMP labeled with Cryptate. The specific signal (i.e. energy transfer) is inversely proportional to the concentration of cAMP in either standard or experimental sample.
The human GLP-1R coding sequence (NCBI Reference Sequence NP_002053.3, including naturally-occurring variant Gly168Ser) was subcloned into pcDNA3 (Invitrogen) and a cell line stably expressing the receptor was isolated (designated Clone H6).
A 1 mL sample of the cell suspension in growth media was counted on a Becton Dickinson ViCell to determine cell viability and cell count per mL. The remaining cell suspension was then adjusted with growth media to deliver 2000 viable cells per well using a Matrix Combi Multidrop reagent dispenser, and the cells were dispensed into a white 384 well tissue culture treated assay plate (Corning 3570). The assay plate was then incubated for 48 hours at 37° C. in a humidified environment in 5% carbon dioxide.
Varying concentrations of each compound to be tested (in DMSO) were diluted in assay buffer (HBSS with Calcium/Magnesium (Lonza/BioWhittaker cat #10-527F)/0.1% BSA (Sigma Aldrich cat #A7409-1L)/20 mM HEPES (Lonza/BioWhittaker cat #17-737E) containing 100 μM 3-isobutyl-1-methylxanthin (IBMX; Sigma cat #15879). The final DMSO concentration is 1%.
After 48 hours, the growth media was removed from the assay plate wells, and the cells were treated with 20 μL of the serially diluted compound in assay buffer for 30 minutes at 37° C. in a humidified environment in 5% carbon dioxide. Following the 30 minute incubation, 10 μL of labeled d2 cAMP and 10 μL of anti-cAMP antibody (both diluted 1:20 in cell lysis buffer; as described in the manufacturer's assay protocol) were added to each well of the assay plate. The plates were then incubated at room temperature and after 60 minutes, changes in the HTRF signal were read with an Envision 2104 multi-label plate reader using excitation of 330 nm and emissions of 615 and 665 nm. Raw data were converted to nM cAMP by interpolation from a cAMP standard curve (as described in the manufacturer's assay protocol) and the percent effect was determined relative to a saturating concentration of the full agonist GLP-17-36 (1 μM) included on each plate. EC50 determinations were made from agonist dose-response curves analyzed with a curve fitting program using a 4-parameter logistic dose response equation.
Background: In TR-FRET formats the signal depends on donor and acceptor labels being close together.

The target in experiment [2] is T2, human GLP-1R (Homo sapiens, UniProt P43220, L260F).
T2 construct: expressed in transfected cells; host or cells: CHO Flp-In T-REx, clonal line C6 (pcDNA5-FRT-TO)
T2 sequence (P43220 24-463 L260F): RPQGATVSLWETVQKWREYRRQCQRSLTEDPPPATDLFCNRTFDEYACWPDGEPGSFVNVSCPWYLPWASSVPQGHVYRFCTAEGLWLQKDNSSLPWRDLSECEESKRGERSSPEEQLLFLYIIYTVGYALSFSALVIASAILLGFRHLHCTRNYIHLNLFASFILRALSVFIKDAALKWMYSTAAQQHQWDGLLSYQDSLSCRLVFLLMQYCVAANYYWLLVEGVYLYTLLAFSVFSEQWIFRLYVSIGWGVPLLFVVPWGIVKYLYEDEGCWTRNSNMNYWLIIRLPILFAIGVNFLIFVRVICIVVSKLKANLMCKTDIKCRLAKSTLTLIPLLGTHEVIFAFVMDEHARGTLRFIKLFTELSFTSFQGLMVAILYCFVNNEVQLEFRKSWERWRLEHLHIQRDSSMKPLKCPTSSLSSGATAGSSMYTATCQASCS
The experiment in a line: CHO GLP-1R Clone C6 - Assay 2 (HTRF cAMP agonist assay). In kind it is cell-based. The note with it: for EC50: CHO clone C6, low GLP-1R density, cAMP, geometric mean; for Assay 2 Emax (%) / Emax: CHO clone C6, relative to saturating full agonist GLP-1 (1 μM), arithmetic mean. Here is the method:
GLP-1R-mediated agonist activity was determined with a cell-based functional assay utilizing an HTRF (Homogeneous Time-Resolved Fluorescence) cAMP detection kit (cAMP HI Range Assay Kit; Cis Bio cat #62AM6PEJ) that measures cAMP levels in the cell. The method is a competitive immunoassay between native cAMP produced by the cells and exogenous cAMP labeled with the dye d2. The tracer binding is visualized by a mAb anti-cAMP labeled with Cryptate. The specific signal (i.e. energy transfer) is inversely proportional to the concentration of cAMP in either a standard or an experimental sample.
The human GLP-1R coding sequence (NCBI Reference Sequence NP_002053.3, including naturally-occurring variant Leu260Phe) was subcloned into pcDNA5-FRT-TO and a clonal CHO cell line stably expressing a low receptor density was isolated using the Flp-In™ T-Rex™ System, as described by the manufacturer (ThermoFisher).
A 1 mL sample of the cell suspension in growth media was counted on a Becton Dickinson ViCell to determine cell viability and cell count per mL. The remaining cell suspension was then adjusted with growth media to deliver 1600 viable cells per well using a Matrix Combi Multidrop reagent dispenser, and the cells were dispensed into a white 384 well tissue culture treated assay plate (Corning 3570). The assay plate was then incubated for 48 h at 37° C. in a humidified environment (95% O2, 5% CO2)
Varying concentrations of each compound to be tested (in DMSO) were diluted in assay buffer [HBSS with Calcium/Magnesium (Lonza/BioWhittaker cat #10-527F)/0.1% BSA (Sigma Aldrich cat #A7409-1L)/20 mM HEPES (Lonza/BioWhittaker cat #17-737E)] containing 100 μM 3-isobutyl-1-methylxanthin (IBMX; Sigma cat #15879). The final DMSO concentration in the compound/assay buffer mixture is 1%.
After 48 h, the growth media was removed from the assay plate wells, and the cells were treated with 20 μL of the serially diluted compound in assay buffer for 30 min at 37° C. in a humidified environment (95% O2, 5% CO2). Following the 30 min incubation, 10 μL of labeled d2 cAMP and 10 μL of anti-cAMP antibody (both diluted 1:20 in cell lysis buffer; as described in the manufacturer's assay protocol) were added to each well of the assay plate. The plates were then incubated at room temperature and after 60 minutes, changes in the HTRF signal were read with an Envision 2104 multi-label plate reader using excitation of 330 nm and emissions of 615 and 665 nm. Raw data were converted to nM cAMP by interpolation from a cAMP standard curve (as described in the manufacturer's assay protocol) and the percent effect was determined relative to a saturating concentration of the full agonist GLP-1 (1 μM) included on each plate. EC50 determinations were made from agonist dose response curves analyzed with a curve fitting program using a 4-parameter logistic dose response equation.

Counter-ions that a name gives are not always drawn.

Experimental findings from patent US12331041B2, “GLP-1 receptor agonists and uses thereof” (Pfizer Inc., priority 2018, dated 2025) are described below.

T1 sequence (P43220 24-463 G168S): as the sequence (P43220 24-463 L260F) above, with G145S, F237L counted along it

In general, EC50 refers to the concentration at which the effect is half-maximal. For the compound `N#Cc1ccc(COc2ccc(F)c(N3CCC4(CC3)CC4c3nc4ccc(C(=O)O)cc4n3CC3CCO3)n2)c(F)c1` (single isomer, unassigned) [Example 55], on human GLP-1R [1], the EC50 is 0.33 nM and the “Assay 1 Emax (%)” value was 83%. For the same compound, on human GLP-1R [2], the EC50 came to 5.8 nM and the “Assay 2 Emax (%)” value was 82%.

In general, Emax refers to the greatest response seen or fitted, relative to the assay's reference. At human GLP-1R [1], `N#Cc1ccc(COc2nc(N3CCC4(CC3)CC4c3nc4ccc(C(=O)O)cc4n3CC3CCO3)ccc2F)c(F)c1` (single isomer, unassigned; ent-1) [Example 52] displayed an EC50 of 100 nM and an Emax of 74%. Also, at human GLP-1R [2], the midpoint of the response, the EC50, lay at 6400 nM and the Emax is 100%.

Regarding `N#Cc1ccc(COc2nc(N3CCC4(CC3)CC4c3nc4ccc(C(=O)O)cc4n3CC3CCO3)c(F)cc2F)c(F)c1` (single isomer, unassigned; ent-1) [Example 57], at human GLP-1R [1], a half-maximal effect (EC50) was put at 0.3 nM and the Emax amounted to 88%. On human GLP-1R [2], the EC50 worked out at 4.1 nM and the Emax came out at 98%.

For `COCCn1c(C2CC23CCN(c2ccnc(OCc4ccc(Cl)cc4F)n2)CC3)nc2ccc(C(=O)O)cc21` (single isomer, unassigned; ent-2) [Example 47, Ammonium 2-(6-{2-[(4-chloro-2-fluorobenzyl)oxy]pyrimidin-4-yl}-6-azaspiro[2.5]oct-1-yl)-1-(2-methoxyethyl)-1H-benzimidazole-6-carboxylate, ENT-2], on human GLP-1R [1], the EC50 amounted to 86 nM and the “Assay 1 Emax (%)” value is recorded as 92%. For the same compound, at human GLP-1R [2], the concentration giving a half-maximal response (EC50) amounted to 1700 nM and the Emax came out at 100%.

For the compound `N#Cc1ccc(COc2nc(N3CCC4(CC3)CC4c3nc4ccc(C(=O)O)cc4n3CC3CCO3)ccc2F)c(F)c1` (single isomer, unassigned; ent-2) [Example 53], on human GLP-1R [1], the EC50 stood at 0.57 nM and the “Assay 1 Emax (%)” value turned out to be 83%. Moreover, at human GLP-1R [2], the midpoint of the response, the EC50, lay at 14 nM and the “Assay 2 Emax (%)” value is reported as 90%.

As to `O=C(O)c1ccc2nc(CC3CCC(c4cccc(OCc5ccc(Cl)cc5F)n4)CC3)n(C[C@@H]3CCO3)c2c1` (single isomer, unassigned; isomer 1) [Example 79], the values for the EC50 at human GLP-1R [1] and on human GLP-1R [2] were above 12000 nM and above 20000 nM, respectively.

At human GLP-1R [1], `O=C(O)c1ccc2nc(CC3CCC(c4cccc(OCc5ccc(Cl)cc5F)n4)CC3)n(C[C@@H]3CCO3)c2c1` (single isomer, unassigned; isomer 2) [Example 80] had an EC50 of 12 nM and an Emax of 98%. On human GLP-1R [2], this compound registered an EC50 of 160 nM and an Emax of 100%.

Take `O=C(O)c1ccc2nc(CN3CCC(c4cccnc4OCc4ccc(Cl)cc4F)CC3)n(C[C@@H]3CCO3)c2c1` [Example 1, Ammonium 2-[(4-{2-[(4-chloro-2-fluorobenzyl)oxy]pyridin-3-yl}piperidin-1-yl)methyl]-1-[(2S)-oxetan-2-ylmethyl]-1H-benzimidazole-6-carboxylate]: on human GLP-1R [1], it took 1 nM to reach a half-maximal effect (EC50) and the Emax came out at 84%. Also, on human GLP-1R [2], the EC50 came to 20 nM and the Emax came out at 95%.

As to `O=C(O)c1ccc2nc(CN3CCC(c4cccnc4OCc4ccc(Cl)cc4F)CC3)n(Cc3ncco3)c2c1` [Example 2, 2-[(4-{2-[(4-chloro-2-fluorobenzyl)oxy]pyridin-3-yl}piperidin-1-yl)methyl]-1-(1,3-oxazol-2-ylmethyl)-1H-benzimidazole-6-carboxylic acid, trifluoroacetate salt], at human GLP-1R [1], the concentration for a half-maximal effect (EC50) stood at 3.2 nM and the Emax came out at 79%. At human GLP-1R [2], the EC50 came to 38 nM and the Emax came out at 81%.

On human GLP-1R [1], `CCn1cncc1Cn1c(CN2CCC(c3cccnc3OCc3ccc(Cl)cc3F)CC2)nc2ccc(C(=O)O)cc21` [Example 3, 2-[(4-{2-[(4-chloro-2-fluorobenzyl)oxy]pyridin-3-yl}piperidin-1-yl)methyl]-1-[(1-ethyl-1H-imidazol-5-yl)methyl]-1H-benzimidazole-6-carboxylic acid, trifluoroacetate salt] registered an EC50 of 0.58 nM and an Emax of 79%. Further, on human GLP-1R [2], the response was half-maximal at 9 nM (EC50) and the Emax was 88%.

At human GLP-1R [1], `N#Cc1ccc(COc2ncccc2C2CCN(Cc3nc4ccc(C(=O)O)cc4n3Cc3ncco3)CC2)c(F)c1` [Example 4, 2-[(4-{2-[(4-cyano-2-fluorobenzyl)oxy]pyridin-3-yl}piperidin-1-yl)methyl]-1-(1,3-oxazol-2-ylmethyl)-1H-benzimidazole-6-carboxylic acid, trifluoroacetate salt] gave an EC50 of 3 nM and an Emax of 77%. Further, at human GLP-1R [2], the EC50 worked out at 40 nM and the Emax came to 98%.

`O=C(O)c1ccc2nc(CN3CCC(c4cccnc4OCc4ccc(Cl)cc4F)CC3)n(Cc3cnco3)c2c1` [Example 6, 2-[(4-{2-[(4-chloro-2-fluorobenzyl)oxy]pyridin-3-yl}piperidin-1-yl)methyl]-1-(1,3-oxazol-5-ylmethyl)-1H-benzimidazole-6-carboxylic acid, trifluoroacetate salt]: at human GLP-1R [1], the EC50 was 4.5 nM and the Emax came to 68%. Further, at human GLP-1R [2], the EC50 came to 84 nM and the Emax came out at 83%.

At human GLP-1R [1], `O=C(O)c1ccc2nc(CN3CCC(c4cccnc4OCc4ccc(Cl)cc4F)CC3)n(Cc3ncco3)c2n1` [Example 7, 2-[(4-{2-[(4-chloro-2-fluorobenzyl)oxy]pyridin-3-yl}piperidin-1-yl)methyl]-3-(1,3-oxazol-2-ylmethyl)-3H-imidazo[4,5-b]pyridine-5-carboxylic acid, trifluoroacetate salt] had an EC50 of 8.9 nM and an Emax of 81%. Also, on human GLP-1R [2], the midpoint of the response, the EC50, lay at 190 nM and the Emax turned out to be 81%.

`O=C(O)c1ccc2nc(CN3CCC(c4cccnc4OCc4ccc(Cl)cc4F)CC3)n(C[C@H]3CCOC3)c2c1` [Example 8, 2-[(4-{2-[(4-chloro-2-fluorobenzyl)oxy]pyridin-3-yl}piperidin-1-yl)methyl]-1-[(3R)-tetrahydrofuran-3-ylmethyl]-1H-benzimidazole-6-carboxylic acid, trifluoroacetate salt]: on human GLP-1R [1], a half-maximal effect (EC50) was put at 6 nM and the Emax turned out to be 72%. On human GLP-1R [2], the EC50 was determined as 230 nM and the Emax is 76%.
